Counter-ions that a name gives are not always drawn.
Tests used:
[1] = tested on: Pfeiffer cell line (diffuse large B cell lymphoma); experiment: Pfeiffer cell proliferation assay; format: cell-based; conditions: Homo sapiens, Pfeiffer, Pfeiffer cells, 3-4 days plus 12 hours [3H]-thymidine incorporation
Experimental: Example C: Pfeiffer Cell Proliferation Assay
Pfeiffer cell line (diffuse large B cell lymphoma) was purchased from ATCC (Manassas, Va.) and maintained in the culture medium recommended (RPMI and 10% FBS). To measure the anti-proliferation activity of the compounds, the Pfeiffer cells were plated with the culture medium (2×10^3 cells/well/per 200 μl) into 96-well ultra-low binding plates (Corning, Corning, N.Y.), in the presence or absence of a concentration range of test compounds. After 3-4 days, [^3H]-thymidine (1 μCi/well) (PerkinElmer, Boston, Mass.) in PBS was then added to the cell culture for an additional 12 hours before the incorporated radioactivity was separated by filtration with water through GF/B filters (Packard Bioscience, Meridenj, Conn.) and measured by liquid scintillation counting with a TopCount (Packard Bioscience).

[2] = biological target: T1, PI3Kδ (p110δ/p85α) (Homo sapiens, UniProt O00329); experiment: PI3Kδ scintillation proximity assay; format: biochemical; conditions: 20 μM ATP, 4 nM PI3Kδ
T1 construct: purchased Millipore (Bedford, Mass.)
In short: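 p110δ/p85α (4 nM) phosphorylated 20 μM PIP2 with 20 μM ATP plus [γ-33P]ATP in 20 mM MOPS pH 6.7, 10 mM MgCl2, 5 mM DTT, 0.03% CHAPS, 0.5% DMSO, 210 min at room temperature. EDTA quench, WGA SPA bead capture, scintillation counting; IC50 from log-concentration fit.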

T1 sequence (O00329 whole entry, species assumed): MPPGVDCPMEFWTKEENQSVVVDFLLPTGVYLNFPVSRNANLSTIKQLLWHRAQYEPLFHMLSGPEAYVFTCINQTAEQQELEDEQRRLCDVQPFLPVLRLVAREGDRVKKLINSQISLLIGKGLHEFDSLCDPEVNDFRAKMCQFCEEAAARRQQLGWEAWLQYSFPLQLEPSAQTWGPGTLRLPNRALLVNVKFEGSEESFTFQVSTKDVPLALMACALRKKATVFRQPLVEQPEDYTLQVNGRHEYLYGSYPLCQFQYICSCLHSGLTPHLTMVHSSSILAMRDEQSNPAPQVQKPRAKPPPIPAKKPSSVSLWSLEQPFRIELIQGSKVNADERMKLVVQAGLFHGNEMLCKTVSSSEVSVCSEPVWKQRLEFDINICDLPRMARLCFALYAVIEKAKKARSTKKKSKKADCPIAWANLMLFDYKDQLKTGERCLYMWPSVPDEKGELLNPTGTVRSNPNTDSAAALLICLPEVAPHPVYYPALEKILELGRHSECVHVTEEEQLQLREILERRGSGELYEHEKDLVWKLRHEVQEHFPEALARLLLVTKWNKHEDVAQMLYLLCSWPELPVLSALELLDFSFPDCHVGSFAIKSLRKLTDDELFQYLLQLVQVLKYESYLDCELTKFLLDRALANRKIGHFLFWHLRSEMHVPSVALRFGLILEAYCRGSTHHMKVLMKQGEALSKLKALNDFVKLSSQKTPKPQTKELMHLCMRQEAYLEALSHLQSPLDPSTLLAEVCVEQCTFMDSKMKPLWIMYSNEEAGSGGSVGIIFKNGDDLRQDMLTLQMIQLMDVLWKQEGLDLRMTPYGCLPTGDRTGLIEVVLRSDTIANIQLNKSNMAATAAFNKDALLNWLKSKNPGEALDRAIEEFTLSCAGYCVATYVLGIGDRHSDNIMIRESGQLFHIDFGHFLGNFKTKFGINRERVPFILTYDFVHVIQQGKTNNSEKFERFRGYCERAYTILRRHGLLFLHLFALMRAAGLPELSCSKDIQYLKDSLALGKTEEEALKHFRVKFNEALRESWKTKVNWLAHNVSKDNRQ
T1 sequence (P27986 whole entry partner, species assumed): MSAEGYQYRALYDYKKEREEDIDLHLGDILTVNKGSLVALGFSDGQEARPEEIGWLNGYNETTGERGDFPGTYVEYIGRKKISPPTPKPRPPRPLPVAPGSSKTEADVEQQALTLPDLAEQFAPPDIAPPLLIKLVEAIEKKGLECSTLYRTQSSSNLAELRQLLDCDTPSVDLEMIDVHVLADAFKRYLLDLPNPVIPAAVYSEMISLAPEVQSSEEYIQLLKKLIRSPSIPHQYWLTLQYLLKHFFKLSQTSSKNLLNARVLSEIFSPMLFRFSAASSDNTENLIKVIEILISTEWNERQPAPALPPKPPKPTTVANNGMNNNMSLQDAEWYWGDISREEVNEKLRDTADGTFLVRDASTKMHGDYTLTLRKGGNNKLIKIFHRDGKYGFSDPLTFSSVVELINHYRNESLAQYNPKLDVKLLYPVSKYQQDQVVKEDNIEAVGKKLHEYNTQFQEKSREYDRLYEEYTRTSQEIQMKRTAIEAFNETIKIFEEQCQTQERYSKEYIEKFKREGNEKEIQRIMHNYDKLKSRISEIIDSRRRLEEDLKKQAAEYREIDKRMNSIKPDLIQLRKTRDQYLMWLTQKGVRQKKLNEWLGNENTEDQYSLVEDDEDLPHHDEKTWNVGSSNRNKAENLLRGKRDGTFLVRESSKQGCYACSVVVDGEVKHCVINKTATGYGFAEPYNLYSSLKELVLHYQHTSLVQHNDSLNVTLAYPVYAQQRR

SMILES: COc1c(C(C)Nc2ncnc3[nH]cnc23)cc(Cl)c(C)c1-c1cncc(Cl)c1 (centres unmarked) [Example 36, N-{1-[5-chloro-3-(5-chloropyridin-3-yl)-2-methoxy-4-methylphenyl]ethyl}-9H-purin-6-amine]
- IC50 [1]: < 100 nM
- IC50 [2]: < 50 nM

SMILES: Cc1c(Cl)cc(C(C)Nc2ncnc3[nH]cnc23)c(-c2cc(F)cc(F)c2)c1-c1cccnc1 (centres unmarked) [Example 78, N-[1-(4-chloro-3′,5′-difluoro-5-methyl-6-pyridin-3-ylbiphenyl-2-yl)ethyl]-9H-purin-6-amine]
- IC50 [1]: < 100 nM
- IC50 [2]: < 50 nM

SMILES: Cc1c(Cl)cc(C(C)Nc2ncnc3[nH]cnc23)c(-c2cccc(F)c2)c1N1CCCC1=O (centres unmarked) [Example 5, 1-{4-Chloro-3′-fluoro-3-methyl-6-[1-(9H-purin-6-ylamino)ethyl]biphenyl-2-yl}pyrrolidin-2-one]
- IC50 [1]: < 100 nM
- IC50 [2]: < 50 nM

SMILES: Cc1c(Cl)cc(C(C)Nc2ncnc3[nH]cnc23)c(-c2cc(F)cc(F)c2)c1C(N)=O (centres unmarked) [Example 19, 4-Chloro-3′,5′-difluoro-3-methyl-6-[1-(9H-purin-6-ylamino)ethyl]biphenyl-2-carboxamide]
- IC50 [1]: < 100 nM
- IC50 [2]: < 50 nM

SMILES: COc1c(C(C)Nc2ncnc3[nH]cnc23)cc(Cl)c(C)c1-c1cc(F)cc(C(N)=O)c1 (centres unmarked) [Example 110, 3′-chloro-5-fluoro-6′-methoxy-2′-methyl-5′-[1-(9H-purin-6-ylamino)ethyl]biphenyl-3-carboxamide]
- IC50 [1]: 100 to 500 nM
- IC50 [2]: < 50 nM

SMILES: COc1c(C(C)Nc2ncnc3[nH]cnc23)cc(Cl)c(C)c1-c1cccc(C(=O)N(C)C)n1 (centres unmarked) [Example 177, 6-{3-chloro-6-methoxy-2-methyl-5-[1-(9H-purin-6-ylamino)ethyl]phenyl}-N,N-dimethylpyridine-2-carboxamide bis(2,2,2-trifluoroacetate)]
- IC50 [1]: < 100 nM
- IC50 [2]: < 50 nM

SMILES: COc1c(C(C)Nc2ncnc3[nH]cnc23)cc(Cl)c(C)c1-c1c(C)noc1C (centres unmarked) [Example 22, N-{1-[5-chloro-3-(3,5-dimethylisoxazol-4-yl)-2-methoxy-4-methylphenyl]ethyl]-9H-purin-6-amine]
- IC50 [1]: < 100 nM
- IC50 [2]: < 50 nM

SMILES: Cc1c(Cl)cc(C(C)Nc2ncnc3[nH]cnc23)c(-c2ccccc2)c1-c1cnc(N)nc1 (centres unmarked) [Example 17, N-{1-[6-(2-aminopyrimidin-5-yl)-4-chloro-5-methylbiphenyl-2-yl]ethyl}-9H-purin-6-amine]
- IC50 [1]: < 100 nM
- IC50 [2]: < 50 nM

SMILES: Cc1noc(C)c1-c1c(C)c(Cl)cc(C(C)Nc2ncnc3[nH]cnc23)c1-c1cc(F)cc(F)c1 (centres unmarked) [Example 77, N-{1-[4-chloro-6-(3,5-dimethylisoxazol-4-yl)-3′,5′-difluoro-5-methylbiphenyl-2-yl]ethyl}-9H-purin-6-amine]
- IC50 [1]: < 100 nM
- IC50 [2]: < 50 nM

SMILES: COc1c(C(C)Nc2ncnc3[nH]cnc23)cc(Cl)c(C)c1-c1ccc(F)c(C(=O)N(C)C)c1 (centres unmarked) [Example 94, 3′-chloro-4-fluoro-6′-methoxy-N,N,2′-trimethyl-5′-[1-(9H-purin-6-ylamino)ethyl]biphenyl-3-carboxamide]
- IC50 [1]: < 100 nM
- IC50 [2]: < 50 nM

SMILES: COc1c(C(C)Nc2ncnc3[nH]cnc23)cc(Cl)c(C)c1-c1cnc(F)c(C)c1 (centres unmarked) [Example 87, N-{1-[5-chloro-3-(6-fluoro-5-methylpyridin-3-yl)-2-methoxy-4-methylphenyl]ethyl}-9H-purin-6-amine]
- IC50 [1]: < 100 nM
- IC50 [2]: < 50 nM

SMILES: COC(=O)N(C(=O)OC)c1c(C)c(Cl)cc(C(C)Nc2ncnc3[nH]cnc23)c1-c1cccc(F)c1 (centres unmarked) [Example 10, Dimethyl {4-chloro-3′-fluoro-3-methyl-6-[1-(9H-purin-6-ylamino)ethyl]biphenyl-2-yl}imidodicarbonate]
- IC50 [1]: 100 to 500 nM
- IC50 [2]: < 50 nM

SMILES: COc1c(C(C)Nc2ncnc3[nH]cnc23)cc(Cl)c(C)c1C1CN(C(C)=O)C1 (centres unmarked) [Example 166, N-{1-[3-(1-Acetylazetidin-3-yl)-5-chloro-2-methoxy-4-methylphenyl]ethyl}-9H-purin-6-amine trifluoroacetate]
- IC50 [1]: < 100 nM
- IC50 [2]: < 50 nM

— US9815839B2, “N-(1-(substituted-phenyl)ethyl)-9H-purin-6-amines as PI3K inhibitors” (Incyte Corporation, priority 2010, dated 2017)
